Results from article PMC9505425, “Targeting of the Mitochondrial TET1 Protein by Pyrrolo[3,2-b]pyrrole Chelators” (International Journal of Molecular Sciences, 2022).
Where “and” joins values, the source holds several entries; their conditions need not be identical. Equal entries are not always repeated.

Assays:
BT-20 cells = assay: MTT cytotoxicity assay, BT-20; assay type: cell-based, human
Method: (§1) The effects of the tested compounds 1–6 on HF-P4, U-118 MG, H1299, BT-20, and Caov-3 cell lines were evaluated by the MTT assay during 48 h treatment (Table 2 and Tables S2–S31). In all tested compounds, we recognized a difference in cytotoxicity between healthy cells (HF-P4) and cancer cell lines (BT-20, Caov-3, and H-1299). […] In the case of ovarian cancer, the authors discovered oncogenic and poor prognosis roles of TET1 in epithelial ovarian carcinoma (EOC). TET1 is believed to demethylate the epigenome and activate numerous oncogenic pathways in EOC. The aforementioned study presents a new mechanism where TET1 contributes to tumor development through collaboration with CK2α [21]. The overexpression of the TET1 protein was also found in triple negative breast cancer and was associated with an activation of PI3K/mTOR pathway and decreased overall survival.
The human mammary gland/breast cell line (BT-20), purchased from ATCC (BT-20 (ATCC® HTB-19™), Manassas, VA, USA), was used for the cytotoxicity assay (MTT), and BT-20 cells were cultivated under standard conditions in Eagle’s minimum essential medium (ATCC, Manassas, VA, USA) supplemented with 10% FBS and streptomycin (100 μg/mL) at 37 °C at a 5% CO2 atmosphere.
(§2) For the cytotoxicity assay, we used the following cell lines: human glioblastoma cell line U118-MG, human mammary gland/breast cell line BT-20, human ovary adenocarcinoma cell line Caov-3, and non-small-cell lung carcinoma H-1299. As previously mentioned, these cell lines contain a high level of the TET1 protein, which corresponds to a lower overall survival. In addition to these cell cultures, we used the human dermal fibroblast cell line HF-P4 as a healthy control. Determination of cytotoxicity was performed using the MTT [3-(4,5-dimethylthiazol-2-yl)-2,5-diphenyltetrazolium bromide] colorimetric assay. Viable cells from each cell line were cultured in 96-well plates (VWR, Stříbrná Skalice, Czech Republic) at a density of 1.0 × 10^5 cells per well and allowed to grow for 24 h in 200 μL of recommended medium. After a 1-day incubation, the medium was replaced with solutions of compounds 1–6 at concentration ranges of 0.1–20 μM. Each concentration was measured four times within one test, and the entire test was repeated three times. Tested compounds 1–6 were dissolved in DMSO and then diluted with corresponding medium to a final volume of 200 μL (maximum 1% DMSO). After 48 h exposure, cells were treated with 175 μL of MTT solution (P-LAB, Prague, Czech Republic) for 2 h. In the next step, MTT solution was removed, and 125 μL of DMSO (Penta, Prague, Czech Republic) was added to solubilize dark crystals of formazan formed in intact cells, and absorbance was measured at 570 nm by the enzyme-linked immunoabsorbent assay reader Infinite® 200 PRO (Tecan, Männedorf, Switzerland). The final DMSO concentration was smaller than 1% (v/v). The absorbance of untreated cells was considered 100%, and IC50 values were calculated by the GraphPad Prism 8 software. As a parameter for cytotoxicity, we used a concentration that inhibits 50% of cell growth (IC50).

Caov-3 cells = assay: MTT cytotoxicity assay, Caov-3; assay type: cell-based, human
Method: as §1
The human ovary adenocarcinoma cell line (Caov-3), purchased from ATCC (Caov-3 (ATCC® HTB-75™), Manassas, VA, USA), was used for the cytotoxicity assay (MTT). Caov-3 cells were cultivated under standard conditions in Dulbecco’s modified Eagle’s medium (ATCC, Manassas, VA, USA) supplemented with 10% FBS and streptomycin (100 μg/mL) at 37 °C at a 5% CO2 atmosphere.
as §2

With `Cc1ccc(-n2c(-c3ccc(C(=O)N/N=C/c4ccccc4O)cc3)cc3c2cc(-c2ccc(C(=O)N/N=C/c4ccccc4O)cc2)n3-c2ccc(C)cc2)cc1` [Compound 6] the Cell viability % (BT-20 cells; BT-20, 100 nM, 48 h, repeats, 0.1 µM) was 95.0647% and 99.24%, the Cell viability % (BT-20 cells; BT-20, 500 nM, 48 h, repeats, 0.5 µM) was 79.35% and 86.49% and the Cell viability % (BT-20 cells; BT-20, 750 nM, 48 h, repeats, 0.75 µM) was 84.44% and 98.05%. The Cell viability % (BT-20 cells; BT-20, 1 uM, 48 h, repeats, 1 µM) was 79.3% and 90.76%, the Cell viability % (BT-20 cells; BT-20, 2.5 uM, 48 h, repeats, 2.5 µM) was 84.17% and 92.79% and the Cell viability % (BT-20 cells; BT-20, 5 uM, 48 h, repeats, 5 µM) was 70.3% and 79.42%. The Cell viability % (BT-20 cells; BT-20, 7.5 uM, 48 h, repeats, 7.5 µM) was 49.86% and 58.52%, the Cell viability % (BT-20 cells; BT-20, 10 uM, 48 h, repeats, 10 µM) was 29.6118% and 40.92% and the Cell viability % (BT-20 cells; BT-20, 15 uM, 48 h, repeats, 15 µM) was 26.72% and 42.11%. The Cell viability % (BT-20 cells; BT-20, 20 uM, 48 h, repeats, 20 µM) was 24.04% and 23.03%, the viability at 0.1 µM (BT-20 cells; Homo sapiens, BT-20, 48 h, BT-20, 100 nM, repeats, read-out: Cell viability %) was 104% and the viability at 0.5 µM (BT-20 cells; Homo sapiens, BT-20, 48 h, BT-20, 500 nM, repeats, read-out: Cell viability %) was 79.9%. The viability at 0.75 µM (BT-20 cells; Homo sapiens, BT-20, 48 h, BT-20, 750 nM, repeats, read-out: Cell viability %) was 85.1%, the viability at 1 µM (BT-20 cells; Homo sapiens, BT-20, 48 h, BT-20, 1 uM, repeats, read-out: Cell viability %) was 91.2% and the viability at 2.5 µM (BT-20 cells; Homo sapiens, BT-20, 48 h, BT-20, 2.5 uM, repeats, read-out: Cell viability %) was 89.2%. It also gave a viability at 5 µM (BT-20 cells; Homo sapiens, BT-20, 48 h, BT-20, 5 uM, repeats, read-out: Cell viability %) of 85.8%, a viability at 7.5 µM (BT-20 cells; Homo sapiens, BT-20, 48 h, BT-20, 7.5 uM, repeats, read-out: Cell viability %) of 50.5% and a viability at 10 µM (BT-20 cells; Homo sapiens, BT-20, 48 h, BT-20, 10 uM, repeats, read-out: Cell viability %) of 36.2%. For the same compound, the viability at 15 µM (BT-20 cells; Homo sapiens, BT-20, 48 h, BT-20, 15 uM, repeats, read-out: Cell viability %) was 37.8%, the viability at 20 µM (BT-20 cells; Homo sapiens, BT-20, 48 h, BT-20, 20 uM, repeats, read-out: Cell viability %) was 18.8% and the IC50 (BT-20 cells; Homo sapiens, BT-20, MTT, 48 h) was 9.84 µM. The melting point was 332 to 333 °C, the Cell viability % (Caov-3 cells; Caov-3, 100 nM, 48 h, repeats, 0.1 µM) was 90.2569% and 126.2705% and 118.7488% and the Cell viability % (Caov-3 cells; Caov-3, 500 nM, 48 h, repeats, 0.5 µM) was 89.11% and 125.1899% and 99.08%. The Cell viability % (Caov-3 cells; Caov-3, 750 nM, 48 h, repeats, 0.75 µM) was 65.96% and 78.5%, the Cell viability % (Caov-3 cells; Caov-3, 1 uM, 48 h, repeats, 1 µM) was 64.72% and 111.7508% and 115.9087% and the Cell viability % (Caov-3 cells; Caov-3, 2.5 uM, 48 h, repeats, 2.5 µM) was 67.86% and 93.922% and 75.11%. The Cell viability % (Caov-3 cells; Caov-3, 5 uM, 48 h, repeats, 5 µM) was 62.99% and 65.69% and 100.7653%, the Cell viability % (Caov-3 cells; Caov-3, 7.5 uM, 48 h, repeats, 7.5 µM) was 58% and 65.63% and 91.09% and the Cell viability % (Caov-3 cells; Caov-3, 10 uM, 48 h, repeats, 10 µM) was 52.62% and 73.89% and 61.74%. The Cell viability % (Caov-3 cells; Caov-3, 15 uM, 48 h, repeats, 15 µM) was 42.46% and 49.26%, the Cell viability % (Caov-3 cells; Caov-3, 20 uM, 48 h, repeats, 20 µM) was 17.34% and 16.88% and the viability at 0.75 µM (Caov-3 cells; Homo sapiens, Caov-3, 48 h, Caov-3, 750 nM, repeats, read-out: Cell viability %) was 67%. The viability at 15 µM (Caov-3 cells; Homo sapiens, Caov-3, 48 h, Caov-3, 15 uM, repeats, read-out: Cell viability %) was 36.3%, the viability at 20 µM (Caov-3 cells; Homo sapiens, Caov-3, 48 h, Caov-3, 20 uM, repeats, read-out: Cell viability %) was 17.4% and the IC50 (Caov-3 cells; Homo sapiens, Caov-3, MTT, 48 h) was 15.4 µM.
